Assays:
HCT-116 = test: cells; conditions: Homo sapiens, HCT-116, 72 h
[1] = molecular target: PI3-kinase p110-alpha/p85-alpha (Homo sapiens, UniProt P42336, H1047R); test: Inhibition of recombinant full length PI3K p85alpha/p110alpha H1047R mutant (unknown origin) expressed in baculovirus infected sf9 cells using PIP2 as substrate preincubated for 10 mins followed by ATP addition and measured after 45 mins by HTRF assay
MCF7 = test: cells; conditions: Homo sapiens, MCF7, 72 h
Description: Antiproliferative activity against human MCF7 cells after 72 hrs by CCK8 assay

[2] = molecular target: PI3-kinase p110-alpha/p85-alpha (Homo sapiens, UniProt P42336); test: Inhibition of recombinant full length PI3K p110alpha/p85alpha (unknown origin) expressed in baculovirus infected sf9 cells using PIP2 as substrate preincubated for 10 mins followed by ATP addition and measured after 45 mins by HTRF assay
Chain of PI3-kinase p110-alpha/p85-alpha (Homo sapiens, UniProt P42336) (P27986 whole entry): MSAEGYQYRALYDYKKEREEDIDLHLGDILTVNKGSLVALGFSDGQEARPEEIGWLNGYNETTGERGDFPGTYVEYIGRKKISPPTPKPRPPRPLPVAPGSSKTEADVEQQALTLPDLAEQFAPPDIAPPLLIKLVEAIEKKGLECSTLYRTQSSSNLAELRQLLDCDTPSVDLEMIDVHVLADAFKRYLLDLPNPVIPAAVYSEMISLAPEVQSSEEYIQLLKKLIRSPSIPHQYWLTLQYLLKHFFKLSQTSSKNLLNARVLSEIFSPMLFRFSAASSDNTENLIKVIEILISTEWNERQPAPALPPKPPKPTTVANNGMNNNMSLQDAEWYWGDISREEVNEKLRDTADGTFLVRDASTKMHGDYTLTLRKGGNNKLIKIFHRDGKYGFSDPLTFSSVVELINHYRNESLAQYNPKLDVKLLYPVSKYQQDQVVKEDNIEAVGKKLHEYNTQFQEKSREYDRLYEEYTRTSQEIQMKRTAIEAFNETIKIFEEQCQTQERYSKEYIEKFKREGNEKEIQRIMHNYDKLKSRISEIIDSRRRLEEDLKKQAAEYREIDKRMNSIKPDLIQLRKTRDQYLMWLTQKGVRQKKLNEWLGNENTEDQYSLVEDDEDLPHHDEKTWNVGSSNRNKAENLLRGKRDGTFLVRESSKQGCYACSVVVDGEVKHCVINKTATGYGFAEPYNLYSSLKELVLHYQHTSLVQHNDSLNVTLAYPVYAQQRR
Chain of PI3-kinase p110-alpha/p85-alpha (Homo sapiens, UniProt P42336) (P42336 whole entry): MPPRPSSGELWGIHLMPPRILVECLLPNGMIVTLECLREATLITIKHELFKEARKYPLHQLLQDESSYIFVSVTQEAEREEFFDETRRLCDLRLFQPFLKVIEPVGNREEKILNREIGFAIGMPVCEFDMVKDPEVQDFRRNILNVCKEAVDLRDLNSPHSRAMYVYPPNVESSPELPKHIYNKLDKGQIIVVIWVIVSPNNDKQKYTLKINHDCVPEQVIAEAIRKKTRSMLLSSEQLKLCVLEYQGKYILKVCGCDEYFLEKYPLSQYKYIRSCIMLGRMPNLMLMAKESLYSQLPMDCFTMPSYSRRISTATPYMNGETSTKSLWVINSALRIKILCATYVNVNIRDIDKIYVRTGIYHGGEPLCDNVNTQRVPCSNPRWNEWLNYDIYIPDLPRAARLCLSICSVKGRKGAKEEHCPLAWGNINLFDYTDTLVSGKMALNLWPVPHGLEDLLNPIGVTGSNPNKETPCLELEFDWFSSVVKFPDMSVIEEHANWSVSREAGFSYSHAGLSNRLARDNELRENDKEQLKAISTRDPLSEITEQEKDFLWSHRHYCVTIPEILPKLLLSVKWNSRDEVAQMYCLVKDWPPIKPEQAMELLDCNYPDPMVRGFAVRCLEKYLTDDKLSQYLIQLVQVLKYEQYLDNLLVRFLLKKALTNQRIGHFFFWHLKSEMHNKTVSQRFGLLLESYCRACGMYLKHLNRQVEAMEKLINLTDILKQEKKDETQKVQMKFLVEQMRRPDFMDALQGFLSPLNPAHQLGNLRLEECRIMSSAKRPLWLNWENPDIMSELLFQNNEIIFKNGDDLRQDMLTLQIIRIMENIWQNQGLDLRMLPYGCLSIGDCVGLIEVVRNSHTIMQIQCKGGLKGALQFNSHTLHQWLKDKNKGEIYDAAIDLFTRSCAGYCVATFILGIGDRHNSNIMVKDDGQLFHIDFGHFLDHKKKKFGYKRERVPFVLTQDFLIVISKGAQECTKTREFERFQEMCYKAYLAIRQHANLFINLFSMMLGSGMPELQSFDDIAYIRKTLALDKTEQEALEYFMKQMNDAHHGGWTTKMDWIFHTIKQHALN

[3] = Inhibition of mTORC1 (unknown origin); set-up: species or system Homo sapiens

Chain of PI3-kinase p110-alpha/p85-alpha (Homo sapiens, UniProt P42336, H1047R) (P42336 whole entry H1047R, looked up): as the sequence (P42336 whole entry) above, with H1047R counted along it

Compound | IC50 (HCT-116) | EC50 [1] | IC50 (MCF7) | EC50 [2] | EC50 [3]
FC(F)(F)c1ccc2nc(-c3ccco3)c(-c3ccco3)nc2c1 | > 50 µM | > 100 µM | > 50 µM | – | –
c1ccc2nc(N3CCOCC3)c(N3CCOCC3)nc2c1 | > 50 µM | > 100 µM | > 50 µM | – | –
CC(C)(C)OC(=O)n1cccc1-c1cc2nc(-c3ccco3)c(-c3ccco3)nc2cc1Br | > 50 µM | 18.6 µM | > 50 µM | – | –
Brc1cc2nc(-c3ccco3)c(-c3ccco3)nc2cc1-c1cc2ccccc2o1 | > 50 µM | > 100 µM | > 50 µM | – | –
FC(F)(F)c1ccccc1-c1cc2nc(-c3ccco3)c(-c3ccco3)nc2cc1Br | 13.5 µM | 0.169 µM | 15.5 µM | 0.097 µM | –
COc1ccccc1-c1cc2nc(-c3ccco3)c(-c3ccco3)nc2cc1Br | > 50 µM | > 100 µM | > 50 µM | – | –
c1coc(-c2nc3ccc(-c4ccncc4)cc3nc2-c2ccco2)c1 | > 50 µM | > 100 µM | > 50 µM | – | –
c1ccc(-c2ccc3nc(-c4ccco4)c(-c4ccco4)nc3c2)cc1 | > 50 µM | 47.8 µM | > 50 µM | 12.4 µM | –
c1coc(-c2nc3ccc(-c4cc5ccccc5o4)cc3nc2-c2ccco2)c1 | > 50 µM | > 100 µM | > 50 µM | – | –
COc1ccccc1-c1ccc2nc(-c3ccco3)c(-c3ccco3)nc2c1 | > 50 µM | 87.3 µM | > 50 µM | – | –
Clc1ccccc1-c1cc2nc(-c3ccco3)c(-c3ccco3)nc2cc1Br | > 50 µM | > 100 µM | > 50 µM | – | –
Brc1cc2nc(-c3ccco3)c(-c3ccco3)nc2cc1-c1ccncc1 | 45.7 µM | 10.8 µM | > 50 µM | – | –
Brc1cc2nc(-c3ccco3)c(-c3ccco3)nc2cc1Br | > 50 µM | 39.3 µM | > 50 µM | – | –
Clc1ccc2nc(-c3ccco3)c(-c3ccco3)nc2c1 | > 50 µM | 18.1 µM | > 50 µM | – | –
c1coc(-c2nc3ccc(-c4cc5ccccc5s4)cc3nc2-c2ccco2)c1 | > 50 µM | > 100 µM | > 50 µM | – | –
Fc1ccc(-c2cc3nc(-c4ccco4)c(-c4ccco4)nc3cc2Br)cc1 | 38.1 µM | 1.9 µM | 35.1 µM | – | –
FC(F)(F)c1ccccc1-c1ccc2nc(-c3ccco3)c(-c3ccco3)nc2c1 | 45.3 µM | 11.8 µM | > 50 µM | 12.8 µM | –
Brc1ccccc1-c1cc2nc(-c3ccco3)c(-c3ccco3)nc2cc1Br | > 50 µM | > 100 µM | > 50 µM | – | –
Oc1ccccc1-c1ccc2nc(-c3ccco3)c(-c3ccco3)nc2c1 | > 50 µM | 43.5 µM | > 50 µM | – | –

Compound | IC50 (HCT-116) | EC50 [1] | IC50 (MCF7) | EC50 [2] | EC50 [3]
Clc1ccc2nc(-c3ccco3)c(-c3ccco3)nc2c1Cl | > 50 µM | > 100 µM | > 50 µM | – | –
Brc1cc2nc(-c3ccco3)c(-c3ccco3)nc2cc1-c1cc2ccccc2s1 | 38.5 µM | 1.2 µM | 40.9 µM | – | –
Fc1cccc(-c2cc3nc(-c4ccco4)c(-c4ccco4)nc3cc2Br)c1F | > 50 µM | 7.3 µM | > 50 µM | – | –
Fc1cccc(-c2cc3nc(-c4ccco4)c(-c4ccco4)nc3cc2Br)c1 | 43.1 µM | 2.9 µM | 19.6 µM | – | –
Cn1c(=O)n(-c2ccc(C(C)(C)C#N)cc2)c2c3cc(-c4cnc5ccccc5c4)ccc3ncc21 [DACTOLISIB] | – | – | – | – | 0.079 µM
Brc1ccc2nc(-c3ccco3)c(-c3ccco3)nc2c1 | > 50 µM | 33.5 µM | > 50 µM | 27.6 µM | –
c1csc(-c2nc3ccccc3nc2-c2cccs2)c1 | > 50 µM | > 100 µM | > 50 µM | – | –
COc1ccc(-c2cc3nc(-c4ccco4)c(-c4ccco4)nc3cc2Br)cc1 | > 50 µM | > 100 µM | > 50 µM | – | –
Brc1cc2nc(-c3ccco3)c(-c3ccco3)nc2cc1-c1ccccc1 | > 50 µM | 20.5 µM | > 50 µM | – | –
Cc1ccc2nc(-c3ccco3)c(-c3ccco3)nc2c1 | > 50 µM | > 100 µM | > 50 µM | – | –
COc1cc(OC)cc(-c2cc3nc(-c4ccco4)c(-c4ccco4)nc3cc2Br)c1 | > 50 µM | > 100 µM | > 50 µM | – | –
Fc1ccc(-c2cc3nc(-c4ccco4)c(-c4ccco4)nc3cc2Br)c(F)c1 | 16.6 µM | 3.2 µM | 27.9 µM | – | –
Brc1cc2nc(-c3ccco3)c(-c3ccco3)nc2cc1-c1cncnc1 | > 50 µM | 13.5 µM | > 50 µM | – | –
Oc1ccccc1-c1cc2nc(-c3ccco3)c(-c3ccco3)nc2cc1Br | > 50 µM | > 100 µM | > 50 µM | – | –
c1ccc(-c2nc3ccccc3nc2-c2ccccc2)cc1 | > 50 µM | > 100 µM | > 50 µM | – | –
Clc1cc(Cl)c2nc(-c3ccco3)c(-c3ccco3)nc2c1 | > 50 µM | 76 µM | > 50 µM | 54.6 µM | –
FC(F)(F)c1ccc(-c2cc3nc(-c4ccco4)c(-c4ccco4)nc3cc2Br)cc1 | 14.9 µM | 0.516 µM | 25.2 µM | – | –
Fc1ccc2nc(-c3ccco3)c(-c3ccco3)nc2c1 | > 50 µM | > 100 µM | > 50 µM | – | –
Fc1ccccc1-c1ccc2nc(-c3ccco3)c(-c3ccco3)nc2c1 | 39.7 µM | 12.7 µM | > 50 µM | – | –
